This assay deals with Ileum. Briefly: Spasmolytic activity in guinea pig ileum assessed as blockade of muscle contractions at 25 ug. The format is functional, Cavia porcellus.

With `COc1cc2c3c(c1OC)C1(C=CC(=O)C=C1)C[C@H]3N(C)CC2.Cl` [PRONUCIFERINE HYDROCHLORIDE], the Activity came out at 75%.

The values above are taken from ChEMBL document CHEMBL1151397, “The Alkaloids of Stephania glabra” (1982).
